Series [1] can be described thus: Mixing with 0.2 M phosphate buffer, light transmittance (660 nm) to evaluate insoluble salt formation. It is filed as physicochemical. The protocol:
A 100 g/L solution, in terms of free form, was prepared using the crystal of monovalent cation salt nonhydrate of HMB, obtained in each of Examples 2, 5 and 7, and mixed with 0.2 M phosphate buffer (pH: 6.80) in an arbitrary mixing ratio. The solution after mixing was measured for the light transmittance (660 nm) to evaluate the presence or absence of insoluble salt formation. In Table 13, “-” indicates unevaluated.

The format of series [2] is physicochemical. The protocol: The sodium HMB nonhydrate obtained in Example 2 was mixed with a glucose-amino acids-electrolytes infusion solution for peripheral vain nutrition [pH: about 6.7; Product Name: Aminofluid Infusion Solution (Otsuka Pharmaceutical Factory, Inc.)] to obtain 0, 0.11, 0.21 and 0.42 weight/volume % solutions at final concentration in terms of free form. The light transmittance (660 nm) was measured by ultraviolet and visible spectrophotometer immediately after the mixing or 24 hours after being left at room temperature to evaluate the presence or absence of insoluble salt formation.

The conditions of series [3]: rat, in vivo. The protocol: The solution was continuously administered to a rat on which operative stress was incurred by intestinal tract scratch operation at a normal dose (240 mL/kg/day) for 3 days. On the final day of administration, urine was collected by 24-hour urine collection and measured for the urinary electrolyte concentration.
Series [4] is described as follows: Measurement of solubility in water at room temperature (HMB concentration of supernatant by HPLC). The class given is physicochemical. The protocol: The crystal of monovalent cation salt nonhydrate of HMB, obtained in each of Examples 2, 5 and 7, was added at room temperature until it dissolved in water and after keeping the solution for a sufficient time under stirring, the supernatant containing no crystal was sampled and measured for the HMB concentration by using HPLC.

The nature of series [5]: pH of aqueous solution of 100 g/L salt crystal in terms of free HMB. The class given is physicochemical. The protocol:
As for pH, an aqueous solution of 100 g/L salt crystal in terms of free HMB was measured.

Setting [6] is: mixing ratio 0.33 Vol/Vol (aqueous 100 g/L HMB solution/0.2M phosphate buffer pH 6.80).
[7] abbreviates: mixing ratio 0.57 Vol/Vol (aqueous 100 g/L HMB solution/0.2M phosphate buffer pH 6.80).
The mark [8] stands for this setting: HMB final concentration 0.11 weight/volume % in Aminofluid, 0 h after addition.
Where [9] appears, read: HMB final concentration 0.11 weight/volume % in Aminofluid, 24 h after addition, room temperature.
[10] abbreviates: HMB final concentration 0.21 weight/volume % in Aminofluid, 0 h after addition.
[11] abbreviates: HMB final concentration 0.42 weight/volume % in Aminofluid, 24 h after addition, room temperature.
Setting [12] is: mixing ratio 0.17 Vol/Vol (aqueous 100 g/L HMB solution/0.2M phosphate buffer pH 6.80).

Like-named read-outs stand apart in the source and are kept apart here.

For the molecule `CC(C)(O)CC(=O)[O-].CC(C)(O)CC(=O)[O-].O.[Ca+2]` [Calcium HMB hydrate, reference compound], the “Transmittance T % (660 nm)” value in series [1] (mixing ratio 0.01 Vol/Vol (aqueous 100 g/L HMB solution/0.2M phosphate buffer pH 6.80)) was 60%; in series [1] (setting [6]), 0.02%; in series [1] (setting [7]) it was 0%; in series [2] (setting [8]), 100%; in series [2] (setting [9]), 70%; in series [2] (setting [10]), 90%. Besides, the “Transmittance T % (660 nm)” value in series [2] (setting [11]) is 20%. Further, the “Insoluble salt formation (in words)” value is reported as “produces an insoluble salt” in series [1] (mixing with phosphate buffer) and “forms an insoluble salt” in series [2]. In series [3], the “Electrolyte abnormality (in words)” value was “induces the increase in urinary calcium and the decrease in urinary phosphate excretion”.
One may read the Solubility as the dissolved amount per volume that the medium holds. Read a high Solubility as much dissolved substance. With `CC(C)(O)CC(=O)[O-].[Na+]` [Example 2, sodium HMB nonhydrate], in series [4] (in water, room temperature), the Solubility was 729 mg/mL. Also, the “Solubility in water compared to existing calcium salt (in words)” value in series [4] (in water, room temperature) is given as “greatly enhanced in the solubility in water”. Further, in series [4] (in water, room temperature, in terms of free HMB), the “Solubility (in terms of free form)” value was found to be 513 mg/mL. The pH in series [5] is on record as 7.9. Moreover, the “Transmittance T % (660 nm)” value in series [1] (setting [12]), in series [1] (setting [6]), in series [1] (setting [7]), in series [2] (setting [8]), in series [2] (setting [9]) and in series [2] (setting [10]) was 100% in each case. The “Transmittance T % (660 nm)” value is given as 100% in series [2] (HMB final concentration 0.21 weight/volume % in Aminofluid, 24 h after addition, room temperature); 100% in series [2] (HMB final concentration 0.42 weight/volume % in Aminofluid, 0 h after addition); 100% in series [2] (setting [11]). Further, the results for the “Insoluble salt formation (in words)” value in series [1] (mixing with phosphate buffer) and in series [2] were “do not form an insoluble salt” and “does not form an insoluble salt”, respectively. The “Electrolyte abnormality (in words)” value in series [3] is reported as “does not induce the above electrolyte abnormality”.
`CC(C)(O)CC(=O)[O-].[K+]` [Example 5, potassium HMB nonhydrate]: in series [4], the Solubility is 1011 mg/mL, the “Solubility (in terms of free form)” value came out at 764 mg/mL and the “Solubility in water compared to existing calcium salt (in words)” value is reported as “greatly enhanced in the solubility in water”. Besides, the pH in series [5] is given as 7.9. In series [1], the “Insoluble salt formation (in words)” value is given as “do not form an insoluble salt”. For the same molecule, the “Transmittance T % (660 nm)” value in series [1] (setting [12]) is listed as 100%. For the same molecule, the “Transmittance T % (660 nm)” value in series [1] (setting [6]) is 100%. Further, the “Transmittance T % (660 nm)” value in series [1] (setting [7]) was 100%.
The molecule `CC(C)(O)CC(=O)O.N` [Example 7, ammonium HMB nonhydrate] yielded a Solubility in series [4] of 660 mg/mL. Further, in series [4], the “Solubility (in terms of free form)” value is 577 mg/mL. For the same molecule, the “Solubility in water compared to existing calcium salt (in words)” value in series [4] is “greatly enhanced in the solubility in water”. The pH in series [5] was 5.7. Moreover, the “Insoluble salt formation (in words)” value in series [1] was “do not form an insoluble salt”. Moreover, the “Transmittance T % (660 nm)” value in series [1] (setting [12]), in series [1] (setting [6]) and in series [1] (setting [7]) was 100% each time.

The values above are taken from patent US10647653B2, “Crystal of monovalent cation salt of 3-hydroxyisovaleric acid and process for producing the crystal” (KYOWA HAKKO BIO CO., LTD., priority 2015, dated 2020).
